From patent US20230002346A1, “NEW COMPOUNDS AND METHODS” (BenevolentAl Bio Limited, priority 2019, published 2023)

Columns and labels:
[1] = Rat PK profile (bioavailability, clearance, half-life); type: in vivo; conditions: male, Sprague Dawley, plasma, i.v. dose 1 mg/kg
Procedure: Male Sprague Dawley Rats 300-350 g (Charles River, UK) were group housed, n=3, under a 12 h light/dark cycle with food and water available ad libitum. At 17:00 on the day prior to dosing all food was removed. On the day of dosing animals were weighed, tail marked and dosed via oral gavage with compound at 3 mg/kg in a volume of 5 mL/kg. Animals were culled at 30 min, 1 h and 4 h post dose via intra-peritoneal administration of pentobarbital. Post mortem blood was withdrawn via cardiac puncture, and briefly stored in K2 EDTA blood tubes on ice before being spun at 14,000 g for 4 min at 4° C. Plasma was withdrawn into a 96 well plate, placed on dry ice and stored at −80° C. Brains were quickly dissected and placed on dry ice before storage at −80° C. Bioanalysis of plasma and brain samples is performed as detailed below. Methods were prepared with guidance from industry standard documents.^i,ii
A 10 mM DMSO stock is used to prepare spiking solutions of test compound in the range of 10-100,000 ng/mL in diluent (MeCN:water, 1;1). Calibration lines are prepared in control male Sprague-Dawley Rat plasma at known concentrations in the range of 1-10000 ng/mL by spiking 2.5 μL of calibration spiking solution into 25 μL control plasma. Experimental samples are thawed to RT and 25 μL aliquots are extracted alongside the calibration lines using protein precipitation (agitation for at least 5 min at RT with 400 μL of MeCN containing 25 ng/mL tolbutamide as an internal standard). Protein precipitates are separated from the extracted test compound by centrifugation at 4000 rpm for 5 min, 4° C. The resulting supernatants are diluted in a ratio of 1:2 with a relevant diluent (e.g. 0.1% formic acid in water or 1:1 MeOH:water). Samples are analysed by UPLC-MS/MS on either an API6500 QTrap or Waters 30 TQS mass spectrometer using previously optimised analytical MRM (multiple reaction monitoring) methods, specific to the test compound. The concentration of test compound in isolated samples is determined following analysis of the samples against the two replicates of the calibration line, injected before and after the sample set with an appropriate regression and weighting used. Only samples within 20% of the expected test concentration are included in the calibration line and any samples that fall outside of the limits of the calibration line will be deemed to be less than or above the limit of quantification (LLoQ/ALoQ).
Pharmacokinetic parameters such as bioavailability (% F), clearance (CL), half-life (T½) and volume of distribution are calculated by non-compartmental analysis using Phoenix Winnonlin 64 software (build 8.0). The bioavailability was calculated from p.o. dosed rats, whereas the clearance and half-life were calculated from i.v. dosed rats. Briefly, in vivo plasma concentrations, timepoints and dose values are imported into the software in a compatible format. Plasma concentration for each animal is plotted against time, and the elimination phase identified and selected. The area under the curve for each plot is calculated using a linear trapezoidal linear interpolation from which pharmacokinetic parameters can subsequently be determined. […] Compounds of the invention have much improved clearance (CL) and half-life (T½) compared to the reference examples.

[2] = Brain to plasma (B:P) ratio in rat; type: in vivo, Sprague Dawley Rats; conditions: male, Sprague Dawley, po, p.o. 3.0 mg/kg, 30% HPBC in water, timepoints averaged 0.5-4 h
Procedure: Male Sprague Dawley Rats 300-350 g (Charles River, UK) were group housed, n=3, under a 12 h light/dark cycle with food and water available ad libitum. At 17:00 on the day prior to dosing all food was removed. On the day of dosing animals were weighed, tail marked and dosed via oral gavage with compound at 3 mg/kg in a volume of 5 mL/kg. Animals were culled at 30 min, 1 h and 4 h post dose via intra-peritoneal administration of pentobarbital. Post mortem blood was withdrawn via cardiac puncture, and briefly stored in K2 EDTA blood tubes on ice before being spun at 14,000 g for 4 min at 4° C. Plasma was withdrawn into a 96 well plate, placed on dry ice and stored at −80° C. Brains were quickly dissected and placed on dry ice before storage at −80° C. Bioanalysis of plasma and brain samples is performed as detailed below. Methods were prepared with guidance from industry standard documents.^i,ii […] Calibration lines are prepared in control male Sprague-Dawley Rat plasma at known concentrations in the range of 1-10000 ng/mL by spiking 2.5 μL of calibration spiking solution into 25 μL control plasma. Experimental samples are thawed to RT and 25 μL aliquots are extracted alongside the calibration lines using protein precipitation (agitation for at least 5 min at RT with 400 μL of MeCN containing 25 ng/mL tolbutamide as an internal standard). Protein precipitates are separated from the extracted test compound by centrifugation at 4000 rpm for 5 min, 4° C. […] Samples are analysed by UPLC-MS/MS on either an API6500 QTrap or Waters 30 TQS mass spectrometer using previously optimised analytical MRM (multiple reaction monitoring) methods, specific to the test compound. The concentration of test compound in isolated samples is determined following analysis of the samples against the two replicates of the calibration line, injected before and after the sample set with an appropriate regression and weighting used. Only samples within 20% of the expected test concentration are included in the calibration line and any samples that fall outside of the limits of the calibration line will be deemed to be less than or above the limit of quantification (LLoQ/ALoQ). […] Calibration lines are prepared in control male Sprague-Dawley Rat brain homogenate at known concentrations in the range of 3-30000 ng/g by spiking 2.5 μL of calibration spiking solution into 25 μL control homogenate. To prepare control and experimental brain homogenates, brains are thawed, weighed and a volume of diluent added (water) in the ratio of 2 mL per gram of brain. Homogenisation of brains is performed by bead-beater homogenisation using Precellys Evolution and CK14 7 mL small ceramic bead homogenisation tubes. Aliquots of 25 μL experimental sample are extracted alongside the calibration lines using protein precipitation (agitation for at least 5 min at RT with 400 μL of MeCN containing 25 ng/mL tolbutamide as an internal standard). Protein precipitates are separated from the extracted test compound by centrifugation at 4000 rpm for 5 min, 4° C. […] Samples are analysed by UPLC-MS/MS on either an API6500 QTrap or Waters TQS mass spectrometer using previously optimised analytical MRM (multiple reaction monitoring) methods, specific to the test compound. The concentration of test compound in isolated samples is determined following analysis of the samples against the two replicates of the calibration line, injected before and after the sample set with an appropriate regression and weighting used. Only samples within 20% of the expected test concentration are included in the calibration line and any samples that fall outside of the limits of the calibration line will be deemed to be less than or above the limit of quantification (LLoQ/ALoQ). Total brain to plasma (B:P) ratios were calculated by dividing the concentration in the brain by the concentration in plasma for each timepoint. The mean brain to plasma ratio is calculated by averaging these brain to plasma ratios across certain timepoints. […]

O=C(Nc1ccc(OC(F)(F)Cl)cc1)c1ccc(=O)n(-c2ccccc2)c1 [Example 56, N-[4-[Chloro(difluoro)methoxy]phenyl]-6-oxo-1-phenyl-pyridine-3-carboxamide]
clearance ([1]; iv): 1.9 mL/min/kg
half-life ([1]; iv, read-out: T½ (converted)): 1200 min
bioavailability ([1]; po, p.o. dose 3 mg/kg): 97%
Kp [2]: 1.91
